Experimental data: patent US20170014430A1, “Cycloartenol-Containing Composition” (KAO CORPORATION, priority 2014, published 2017)
Marks after values point to notes of the source that are not given here.

Columns and labels:
[1] = target: T1, lipase from porcine pancreas (Sus scrofa, UniProt P00591); experiment: Inhibitory action against lipase: amount of free fatty acid produced from bile acid micelles (artificial in vivo system); format: biochemical
T1 construct: lipase from porcine pancreas [SIGMA]; purchased SIGMA; host or cells: porcine pancreas (tissue-derived preparation)
T1 sequence (P00591 1-450): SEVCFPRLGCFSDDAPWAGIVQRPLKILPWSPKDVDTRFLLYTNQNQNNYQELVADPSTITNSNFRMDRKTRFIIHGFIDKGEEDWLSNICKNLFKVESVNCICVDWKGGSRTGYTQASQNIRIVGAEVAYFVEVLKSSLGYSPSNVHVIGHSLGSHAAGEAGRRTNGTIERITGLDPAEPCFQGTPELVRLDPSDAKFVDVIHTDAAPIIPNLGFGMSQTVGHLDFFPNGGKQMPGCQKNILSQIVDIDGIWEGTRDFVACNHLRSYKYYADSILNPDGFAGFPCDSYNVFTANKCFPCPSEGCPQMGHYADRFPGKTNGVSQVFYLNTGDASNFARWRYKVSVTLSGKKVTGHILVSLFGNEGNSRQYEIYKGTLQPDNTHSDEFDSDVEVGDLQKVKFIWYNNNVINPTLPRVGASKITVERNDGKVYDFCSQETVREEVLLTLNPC
Description: In this example, an emulsification liquid containing bile acid micelles was produced as an artificial in vivo system. In the artificial in vivo system, the inhibitory action of the test samples against the lipolytic activity by lipase in vivo was evaluated by measuring the amount of free fatty acid collected from the bile acid micelles after application of lipase in the presence of the test samples.
10 g of olive oil (Wako Pure Chemical Industries, Ltd.) was added to each test sample (30 mg in terms of CA amount), which was heated at 70° C. in an oven for 20 minutes to be dissolved.
0.92 g of olive oil in which each test sample was dissolved, 40 mg of egg yolk lecithin (Wako Pure Chemical Industries, Ltd.), and 24 mL of the bile acid solution were added to a 50-mL tube, followed by cooling with ice, and thereafter emulsification was performed thereon using an ultrasonic homogenizer. […] Thereafter, 2.5 mL of a 0.1% lipase solution (0.1N TRIS-HCl buffer solution of lipase from porcine pancreas [SIGMA]) was added thereto, which was mixed with stirring using a vortex mixer for 10 seconds, followed by incubation in a water bath at 37° C. for 10 minutes. The tube was moved into an oil bath at 70° C., was subjected to enzyme inactivation for 15 minutes, and thereafter was mixed again with stirring using a vortex mixer to collect 100 μL.
The amount of free fatty acid in the reaction solution was determined using NEFA-C Test wako. That is, 800 μL of a coloring reagent A was added to 100 μL of the sample, which was stirred using a vortex mixer, and thereafter was heated at 37° C. for 10 minutes. After cooling, 1600 μL of a coloring reagent B was added thereto, followed by stirring, and was heated again at 37° C. for 10 minutes. This was subjected to an ultraviolet/visible spectrophotometer to measure an absorbance at 550 nm. Thus, the amount of free fatty acid produced was obtained. Each reaction solution was measured 3 times or 4 times by the same operation.

blood GIP = experiment: Inhibitory action against blood GIP increase, intragastric administration test of starch paste sample; format: in vivo, C57BL/6J mice; settings: Table 6, AUC for 120 minutes, relative value with control administration group taken as 100, 175 μM in terms of CA
Description: For experiments, C57BL/6J mice (male, 8 week-old, manufactured by CLEA Japan, Inc.) grouped so that each group has the same body weight (N=16/group) were used and were subjected to the tests.
Starch (waxy corn, Amioca) was dissolved in distilled water in an amount 4 times the amount of the starch and gelatinized (pregelatinized) by autoclaving (at 121° C. under a pressure of 2 atmospheres for 20 minutes). Each of the test samples (Sample Nos. 2 to 4 and 8) shown in Table 4 was emulsified in triolein containing egg yolk lecithin and albumin to obtain an emulsified oil. […]
The starch paste sample containing the test sample was intragastrically administered to a mouse fasted for 20 hours, and part of the blood was collected from the orbital venous plexus over time (before the administration, and at 10, 30, 60, and 120 minutes after the administration). […] The collected blood was subjected to centrifugation, and thereafter the blood plasma was prepared and measured using GIP ELISA kit (EMD Millipore Corporation). The blood GIP amount of each sample after the administration was calculated by measuring the maximum value (Cmax) and the area under the concentration curve (AUC) for 120 minutes. […]

[2] = in vivo; Patent Literatures 9 to 11; cited from earlier work

CC(C)=CCC[C@@H](C)[C@H]1CC[C@@]2(C)[C@@H]3CC[C@H]4C(C)(C)[C@@H](O)CC[C@@]45C[C@@]35CC[C@]12C [Purified product of cycloartenol, cycloartenol]
amount of free fatty acid produced compared to the control / lipase inhibitory activity (in words) ([1]; Example 1): reduced
Amount of free fatty acid produced, Average ([1]; Example 1, test sample 30 mg in terms of CA in 10 g olive oil, lipase 37° C. 10 minutes, NEFA-C Test wako, absorbance 550 nm, control (olive oil alone) 0.376): 0.276
amount of free fatty acid produced compared with the control / lipase inhibitory activity (in words) ([1]; Example 2): reduced
Amount of free fatty acid produced, Average ([1]; Example 2, same manner as Example 1, control (olive oil alone) 0.296): 0.238
GIP (AUC) (blood GIP): 81 *
inhibitory activity against GIP increase [2]: exerts inhibitory activities
inhibitory activity against postprandial blood glucose increase [2]: exerts inhibitory activities
